What was measured:
Assay in all cases: relative viability (nuclei count vs DMSO), 5 days (fraction); higher = more cells survive
[1] = system: COR-L 105
Method in brief: (§1)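 One day after seeding in 1536-well plates, lung cancer cell lines were dosed by pin tool. Dosing was either single-drug or a fixed anchor-drug dose plus five library-drug doses (not always all listed) in √10 steps. After 5 days, nuclei were stained in one fix-and-stain step and counted on 4× images, and relative viability is the nuclei count of treated wells over that of vehicle wells, given as the median of duplicate plates.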

[2] = system: COR-L23
Method in brief: as §1

[3] = system: HARA
Method in brief: as §1

[4] = system: HCC-15
Method in brief: as §1

[5] = system: HOP-62
Method in brief: as §1

[6] = system: NCI-H1355
Method in brief: as §1

[7] = system: NCI-H1395
Method in brief: as §1

[8] = system: NCI-H1734
Method in brief: as §1

[9] = system: NCI-H1755
Method in brief: as §1

[10] = system: NCI-H1792
Method in brief: as §1

[11] = system: NCI-H1793
Method in brief: as §1

[12] = system: NCI-H1993
Method in brief: as §1

[13] = system: NCI-H2009
Method in brief: as §1

[14] = system: NCI-H2170
Method in brief: as §1

[15] = system: NCI-H2228
Method in brief: as §1

[16] = system: NCI-H2347
Method in brief: as §1

[17] = system: NCI-H358
Method in brief: as §1

[18] = system: NCI-H522
Method in brief: as §1

[19] = system: NCI-H647
Method in brief: as §1

[20] = system: NCI-H838
Method in brief: as §1

[21] = system: SK-MES-1
Method in brief: as §1

[22] = system: UMC-11
Method in brief: as §1

## Nc1ccn([C@@H]2O[C@H](CO)[C@@H](O)[C@@H]2O)c(=O)n1 [Cytarabine] + CC(=O)Nc1cccc(-n2c(=O)n(C3CC3)c(=O)c3c(Nc4ccc(I)cc4F)n(C)c(=O)c(C)c32)c1 [Trametinib] (partner 0.02 µM)
[1]; first compound 0.005 µM
  relative viability: 0.435
[1]; first compound 0.01581 µM
  relative viability: 0.473
[1]; first compound 0.05 µM
  relative viability: 0.438
[1]; first compound 0.1581 µM
  relative viability: 0.315
[1]; first compound 0.5 µM
  relative viability: 0.302
[2]; first compound 0.005 µM
  relative viability: 0.71
[2]; first compound 0.01581 µM
  relative viability: 0.529
[2]; first compound 0.05 µM
  relative viability: 0.546
[2]; first compound 0.1581 µM
  relative viability: 0.304
[2]; first compound 0.5 µM
  relative viability: 0.203
[3]; first compound 0.005 µM
  relative viability: 1.03
[3]; first compound 0.01581 µM
  relative viability: 0.354
[3]; first compound 0.05 µM
  relative viability: 0.335
[3]; first compound 0.1581 µM
  relative viability: 0.204
[3]; first compound 0.5 µM
  relative viability: 0.231
[4]; first compound 0.005 µM
  relative viability: 0.396
[4]; first compound 0.01581 µM
  relative viability: 0.281
[4]; first compound 0.05 µM
  relative viability: 0.381
[4]; first compound 0.1581 µM
  relative viability: 0.362
[4]; first compound 0.5 µM
  relative viability: 0.357
[5]; first compound 0.005 µM
  relative viability: 0.352
[5]; first compound 0.01581 µM
  relative viability: 0.327
[5]; first compound 0.05 µM
  relative viability: 0.261
[5]; first compound 0.1581 µM
  relative viability: 0.23
[5]; first compound 0.5 µM
  relative viability: 0.144
[6]; first compound 0.005 µM
  relative viability: 0.367
[6]; first compound 0.01581 µM
  relative viability: 0.38
[6]; first compound 0.05 µM
  relative viability: 0.398
[6]; first compound 0.1581 µM
  relative viability: 0.303
[6]; first compound 0.5 µM
  relative viability: 0.282
[7]; first compound 0.005 µM
  relative viability: 1.06
[7]; first compound 0.01581 µM
  relative viability: 1.02
[7]; first compound 0.05 µM
  relative viability: 0.591
[7]; first compound 0.1581 µM
  relative viability: 0.524
[7]; first compound 0.5 µM
  relative viability: 0.436
[8]; first compound 0.005 µM
  relative viability: 0.361
[8]; first compound 0.01581 µM
  relative viability: 0.264
[8]; first compound 0.05 µM
  relative viability: 0.203
[8]; first compound 0.1581 µM
  relative viability: 0.132
[8]; first compound 0.5 µM
  relative viability: 0.119
[9]; first compound 0.005 µM
  relative viability: 0.827
[9]; first compound 0.01581 µM
  relative viability: 0.76
[9]; first compound 0.05 µM
  relative viability: 0.681
[9]; first compound 0.1581 µM
  relative viability: 0.512
[9]; first compound 0.5 µM
  relative viability: 0.407
[10]; first compound 0.01581 µM
  relative viability: 0.438
[10]; first compound 0.05 µM
  relative viability: 0.356
[10]; first compound 0.1581 µM
  relative viability: 0.213
[10]; first compound 0.5 µM
  relative viability: 0.118
[11]; first compound 0.005 µM
  relative viability: 0.489
[11]; first compound 0.01581 µM
  relative viability: 0.405
[11]; first compound 0.05 µM
  relative viability: 0.398
[11]; first compound 0.1581 µM
  relative viability: 0.266
[11]; first compound 0.5 µM
  relative viability: 0.258
[12]; first compound 0.005 µM
  relative viability: 0.425
[12]; first compound 0.01581 µM
  relative viability: 0.518
[12]; first compound 0.05 µM
  relative viability: 0.498
[12]; first compound 0.1581 µM
  relative viability: 0.437
[12]; first compound 0.5 µM
  relative viability: 0.432
[13]; first compound 0.005 µM
  relative viability: 0.271
[13]; first compound 0.01581 µM
  relative viability: 0.25
[13]; first compound 0.05 µM
  relative viability: 0.249
[13]; first compound 0.1581 µM
  relative viability: 0.238
[13]; first compound 0.5 µM
  relative viability: 0.137
[14]; first compound 0.005 µM
  relative viability: 0.741
[14]; first compound 0.01581 µM
  relative viability: 0.665
[14]; first compound 0.05 µM
  relative viability: 0.581
[14]; first compound 0.1581 µM
  relative viability: 0.374
[14]; first compound 0.5 µM
  relative viability: 0.299
[15]; first compound 0.005 µM
  relative viability: 0.288
[15]; first compound 0.01581 µM
  relative viability: 0.171
[15]; first compound 0.05 µM
  relative viability: 0.158
[15]; first compound 0.1581 µM
  relative viability: 0.127
[15]; first compound 0.5 µM
  relative viability: 0.116
[16]; first compound 0.005 µM
  relative viability: 0.277
[16]; first compound 0.01581 µM
  relative viability: 0.309
[16]; first compound 0.05 µM
  relative viability: 0.282
[16]; first compound 0.1581 µM
  relative viability: 0.236
[16]; first compound 0.5 µM
  relative viability: 0.257
[17]; first compound 0.005 µM
  relative viability: 0.126
[17]; first compound 0.01581 µM
  relative viability: 0.108
[17]; first compound 0.05 µM
  relative viability: 0.103
[17]; first compound 0.1581 µM
  relative viability: 0.076
[17]; first compound 0.5 µM
  relative viability: 0.0812
[18]; first compound 0.005 µM
  relative viability: 0.823
[18]; first compound 0.01581 µM
  relative viability: 0.75
[18]; first compound 0.05 µM
  relative viability: 0.65
[18]; first compound 0.1581 µM
  relative viability: 0.589
[18]; first compound 0.5 µM
  relative viability: 0.515
[19]; first compound 0.005 µM
  relative viability: 0.449
[19]; first compound 0.01581 µM
  relative viability: 0.317
[19]; first compound 0.05 µM
  relative viability: 0.22
[19]; first compound 0.1581 µM
  relative viability: 0.0976
[19]; first compound 0.5 µM
  relative viability: 0.0793
[20]; first compound 0.005 µM
  relative viability: 0.724
[20]; first compound 0.01581 µM
  relative viability: 0.535
[20]; first compound 0.05 µM
  relative viability: 0.543
[20]; first compound 0.1581 µM
  relative viability: 0.274
[20]; first compound 0.5 µM
  relative viability: 0.246
[21]; first compound 0.005 µM
  relative viability: 0.545
[21]; first compound 0.01581 µM
  relative viability: 0.603
[21]; first compound 0.05 µM
  relative viability: 0.315
[21]; first compound 0.1581 µM
  relative viability: 0.215
[21]; first compound 0.5 µM
  relative viability: 0.227
[22]; first compound 0.005 µM
  relative viability: 0.487
[22]; first compound 0.01581 µM
  relative viability: 0.424
[22]; first compound 0.05 µM
  relative viability: 0.373
[22]; first compound 0.1581 µM
  relative viability: 0.216
[22]; first compound 0.5 µM
  relative viability: 0.183

Source: the supplement of paper PMC10307832
